*1 amine or outer side, *2 acyl side, *3 side chain or, on linkers, in order; H or OH if unused. Where a SMILES comes first, the peptide text is derived from it. Bridges are numbered along the chain shown (N, C = ends). [ ]: non-standard residue; d: D form. The star is where a group is joined. hPhe(3-Cl-4-CF3) = N[C@@H](CCc1ccc(C(F)(F)F)c(Cl)c1)C(=O)O; X19 = O=C([C@H](Cc1ccc(C(F)(F)F)cc1)N(CCCF)[*:1])[*:2]; NPrPhe(4-CF3) = CCCN[C@@H](Cc1ccc(C(F)(F)F)cc1)C(=O)O; NMeGly(cPent) = CN[C@H](C(=O)O)C1CCCC1; Hyp = O=C(O)[C@@H]1C[C@@H](O)CN1; NMeD = CN[C@@H](CC(=O)O)C(=O)O; NMeL = CN[C@@H](CC(C)C)C(=O)O; Morpholide = C1CN(*)CCO1; NMeA = CN[C@@H](C)C(=O)O; Ac5c = NC1(C(=O)O)CCCC1; Aze = O=C(O)[C@@H]1CCN1; NEtG = CCNCC(=O)O; Sar = CNCC(=O)O
Experiments:
HRAS wild-type protein = HRAS wild-type protein (Homo sapiens, UniProt P01112); experiment: Binding to HRAS by surface plasmon resonance (SPR), KD and KD ratio to KRAS
Chain of HRAS wild-type protein (P01112 whole entry): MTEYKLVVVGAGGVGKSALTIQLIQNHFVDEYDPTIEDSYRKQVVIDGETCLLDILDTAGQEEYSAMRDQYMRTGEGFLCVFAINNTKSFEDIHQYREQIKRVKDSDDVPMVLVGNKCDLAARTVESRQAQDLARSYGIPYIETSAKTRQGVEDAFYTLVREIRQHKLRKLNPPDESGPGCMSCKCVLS
How it was run: (§1)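 Biotinylated GDP-bound RAS was captured at about 100–300 RU. Running buffer: HBS pH 7.4, 10 mM MgCl2, 10 µM GDP, 1 mM DTT, 0.01% Tween 20, 4% DMSO.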

[1] = test system: human lung cancer strain NCI-H441; assay type: cell-based
How it was run: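 Step one: dispense the test compound in serial DMSO dilutions. Step three: add the reagent and measure […].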

[2] = biological target: GDP-bound NRAS wild-type protein (Homo sapiens, UniProt P01111); experiment: Binding to NRAS by surface plasmon resonance (SPR), KD and KD ratio to KRAS
Chain of GDP-bound NRAS wild-type protein (P01111 whole entry): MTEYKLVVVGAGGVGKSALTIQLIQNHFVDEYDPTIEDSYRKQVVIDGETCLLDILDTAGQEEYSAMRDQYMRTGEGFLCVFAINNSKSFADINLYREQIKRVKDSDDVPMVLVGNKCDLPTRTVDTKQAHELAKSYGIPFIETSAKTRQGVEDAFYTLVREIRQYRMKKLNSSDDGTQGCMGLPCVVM
How it was run: as §1

[3] = ratio of KD for HRAS wild-type protein to KD for KRAS
[4] = ratio of KD for GDP-bound NRAS wild-type protein to KD for KRAS
[5] = ratio of the KD value with respect to HRAS wild-type protein to the KD value with respect to KRAS
[6] = ratio of the KD value with respect to GDP-bound NRAS wild-type protein to the KD value with respect to KRAS

Row | SMILES | HRAS /KRAS (HRAS wild-type protein; [3]) | IC50 [1] | NRAS /KRAS [2, 4] | HRAS /KRAS (HRAS wild-type protein; [5]) | NRAS /KRAS [2, 6] | HRAS /KRAS (HRAS wild-type protein; ratio of KD value for HRAS wild-type protein to KD value for KRAS (SPR)) | NRAS /KRAS ([2]; ratio of KD value for GDP-bound NRAS wild-type protein to KD value for KRAS (SPR))
1 | CCCN1C(=O)CN(C)C(=O)CN(CC)C(=O)[C@H]([C@@H](C)CC)NC(=O)[C@H](CC(C)C)N(C)C(=O)C[C@@H](C(=O)N2CCOCC2)NC(=O)[C@H](C2CCCC2)N(C)C(=O)C2(CCCC2)NC(=O)[C@@H]2C[C@@H](OCC)CN2C(=O)[C@H](CCc2ccc(C(F)(F)F)c(Cl)c2)NC(=O)CN(C)C(=O)[C@@H]1Cc1ccc(C(F)(F)F)cc1 [PP0335] ([NMeL]I[NEtG][Sar][NPrPhe(4-CF3)][Sar][hPhe(3-Cl-4-CF3)][Hyp](Et)[Ac5c][NMeGly(cPent)]D-Morpholide; lactam N-11) | C (A compound having a KD ratio of 0.1 or more and less than 3 is denoted as C) | 41.7 nM | B (a compound having 3 or more and less than 10 is denoted as B) | – | – | – | –
2 | CC[C@H](C)[C@@H]1NC(=O)[C@H](CC(C)C)N(C)C(=O)C[C@@H](C(=O)N2CCOCC2)N(C)C(=O)[C@H](C2CCCC2)N(C)C(=O)C2(CCCC2)NC(=O)[C@@H]2CCCN2C(=O)[C@H](CCc2ccc(C(F)(F)F)c(Cl)c2)NC(=O)CN(C)C(=O)[C@H](Cc2ccc(C(F)(F)F)cc2)N(CCCF)C(=O)[C@@H]2CCN2C(=O)[C@H](C)N(C)C1=O [PP0525] ([NMeL]I[NMeA][Aze][X19][Sar][hPhe(3-Cl-4-CF3)]P[Ac5c][NMeGly(cPent)][NMeD]-Morpholide; lactam N-11) | – | 2.1 nM | – | B (a compound having 3 or more and less than 10 is denoted as B) | C (A compound having a KD ratio of 0.1 or more and less than 3 is denoted as C) | – | –
3 | C=CC[C@H]1C(=O)N[C@@H]([C@@H](C)CC)C(=O)N(C)CC(=O)N(C)[C@H]2CCCCN(C2=O)[C@@H](Cc2ccc(C(F)(F)F)cc2)C(=O)N(C)CC(=O)N[C@@H](CCc2cc(F)c(C(F)(F)F)c(F)c2)C(=O)N2C[C@H](OCC)C[C@H]2C(=O)NC2(CCC2)C(=O)N(C)[C@@H](C2CCCC2)C(=O)N(C)[C@H](C(=O)N(C)C)CC(=O)N1C [PP0695] | – | 2.9 nM | – | C (A compound having a KD ratio of 0.1 or more and less than 3 is denoted as C) | C (A compound having a KD ratio of 0.1 or more and less than 3 is denoted as C) | – | –
4 | CCO[C@@H]1C[C@H]2C(=O)NC3(CCC3)C(=O)N(C)[C@@H](C3CCCC3)C(=O)N(CC)[C@H](C(=O)N3CCOCC3)CC(=O)N(C)[C@@H](CO)C(=O)N[C@@H]([C@@H](C)CC)C(=O)N(C)CC(=O)N(C)[C@H]3CCCCCN(C3=O)[C@@H](Cc3ccc(C(F)(F)F)cc3)C(=O)N(C)CC(=O)N[C@@H](CCc3cc(F)c(C(F)(F)F)c(F)c3)C(=O)N2C1 [PP0945] | A (a compound having 10 or more and less than 20 is denoted as A) | 987 nM | B (a compound having 3 or more and less than 10 is denoted as B) | – | – | – | –
5 | CC[C@H](C)[C@@H]1NC(=O)[C@H](COC)N(C)C(=O)C[C@@H](C(=O)N(C)C)N(C)C(=O)[C@H](C2CCCC2)N(C)C(=O)C2(CC(C)(C)C2)NC(=O)[C@@H]2CC(F)(F)CN2C(=O)[C@H](CCc2cc(F)c(C(F)(F)F)c(F)c2)NC(=O)CN(C)C(=O)[C@H](Cc2ccc(C(F)(F)F)cc2)N2CC/C=C\C[C@@H](C2=O)N(C)C(=O)CN(C)C1=O [PP1717] | – | 2.4 nM | – | – | – | A (a compound having 10 or more and less than 20 is denoted as A) | A (a compound having 10 or more and less than 20 is denoted as A)

Source: EP4603105A1, “PHARMACEUTICAL COMPOSITION CONTAINING CYCLIC COMPOUND HAVING SELECTIVE KRAS INHIBITORY EFFECT AGAINST HRAS AND NRAS” (CHUGAI SEIYAKU KABUSHIKI KAISHA, priority 2022, dated 2024)
